Source: US20180055915A1, “COMPOSITIONS AND METHODS FOR TREATING PROSTATE CANCER” (UNIVERSITY OF ROCHESTER, priority 2016, published 2018)
Residues, ends and D or L forms follow the SMILES beside them. *: point of attachment. Cbz = O=C(OCc1ccccc1)*

What was measured:
[1] = tested on: wild type AR, ARv7, AR-F876L; details: cited from earlier work
EnzR1-C4-2 cells = assay: MTT cell proliferation assay, EnzR1-C4-2; format: cell-based
Experimental: (§1) Cells were seeded in 24-well plates (5×10^3 cells/500 μL media per well) and cultured for 0, 2, 4 and 6 days. Cells were harvested and cell numbers and absorbance were calculated and recorded after using yellow tetrazolium MTT (3-(4, 5-dimethylthiazolyl-2)-2,5-diphenyltetrazolium bromide agent.

ARv7 mRNA = ARv7 mRNA expression (real-time PCR); format: cell-based
Experimental: (§2) Total RNAs were isolated using Trizol reagent (Invitrogen, Grand Island, N.Y.). 2 μg of total RNA was subjected to reverse transcription using Superscript III transcriptase (Invitrogen). Quantitative real-time PCR (qRT-PCR) was conducted using a Bio-Rad CFX96 system with SYBR green to determine the mRNA expression level of a gene of interest. Expression levels were normalized to the expression of GAPDH.

[2] = CRPC patients; cited from earlier work
Enz-S1-C4-2 cells = assay: Enz sensitivity after 2 months treatment (MTT proliferation); format: cell-based
Experimental: as §1

ARv7 = molecular target: T1, ARv7 (Homo sapiens, UniProt P10275); assay: ARv7 protein expression/degradation in CRPC cells (western blot); format: cell-based
T1 construct: endogenous in cells; host or cells: EnzR1 C4-2, EnzR3 C4-2B, EnzR2 CWR22Rv1
T1 sequence (P10275 1-644 isoform P10275-3): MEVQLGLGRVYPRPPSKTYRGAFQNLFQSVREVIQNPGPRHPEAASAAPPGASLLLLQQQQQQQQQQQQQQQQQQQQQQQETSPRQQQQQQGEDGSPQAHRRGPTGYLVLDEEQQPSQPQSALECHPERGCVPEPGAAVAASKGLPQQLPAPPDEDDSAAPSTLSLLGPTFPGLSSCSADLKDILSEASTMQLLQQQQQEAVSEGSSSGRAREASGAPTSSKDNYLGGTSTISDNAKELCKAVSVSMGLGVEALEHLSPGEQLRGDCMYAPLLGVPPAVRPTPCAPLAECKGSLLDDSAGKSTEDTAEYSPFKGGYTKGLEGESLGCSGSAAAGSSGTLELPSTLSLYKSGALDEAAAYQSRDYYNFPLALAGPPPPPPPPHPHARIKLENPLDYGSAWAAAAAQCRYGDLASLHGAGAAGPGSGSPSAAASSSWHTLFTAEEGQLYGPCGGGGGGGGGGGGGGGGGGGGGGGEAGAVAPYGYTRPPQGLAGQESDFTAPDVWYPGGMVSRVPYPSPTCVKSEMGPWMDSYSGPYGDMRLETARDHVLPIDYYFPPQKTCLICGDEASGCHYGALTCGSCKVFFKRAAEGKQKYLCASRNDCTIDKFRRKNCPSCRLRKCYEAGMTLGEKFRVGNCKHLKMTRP
Experimental: (§3) To further dissect the mechanism(s) why Cis can decrease ARv7 (and AR) protein expression, first assayed was the Cis effects on ARv7 (and AR) protein stability with protein biosynthesis inhibitor, cycloheximide (CHX) and proteasome inhibitor MG132 in EnzR2-CWR22Rv1 cells.
(§4) For protein degradation, EnzR C4-2 cells were treated with 1 μg/mL Cisplatin for 6 hr. Cycloheximide or MG132 was added for another 4 hrs. For ubiquitination, human kidney epithelial HEK293T cells were grown in DMEM media with 10% FCS. Cells were plated at ˜60% confluency and pGFP-ubiquitin, pAR were transiently transfected into cells using CaCl2 reagent. After 48 hrs. of transfection, cells were treated with 1 μg/mL Cisplatin for 6 hrs. […], MG132, was added for another 4 hrs. Cell extracts were analyzed for AR degradation or AR-ubiquitination by using western blot.
(§5) Cells were lysed in lysis buffer and proteins (50 μg) were separated on 10% SDS/PAGE gel and then transferred onto PVDF membranes (Millipore, Billerica, Mass.). After blocking membranes with 5% milk, they were incubated with appropriate dilutions of specific primary antibodies (anti-AR (N-20), anti-SF2, anti-GFP, anti-GAPDH, anti-a-tubulin). The blots were incubated with HRP-conjugated secondary antibodies and visualized using ECL system (Thermo Fisher Scientific, Rochester, N.Y.).

PCa cell = details: in vitro and in vivo; cited from earlier work
AR mutant AR876 = molecular target: T2, AR mutant AR876 (Homo sapiens, UniProt P10275, F877L); assay: AR876 expression in PC3 cells stably transfected with AR876-cDNA; format: cell-based; details: FIG. 1G
T2 construct: expressed in transfected cells; host or cells: PC3
T2 sequence (P10275 1-920 F877L): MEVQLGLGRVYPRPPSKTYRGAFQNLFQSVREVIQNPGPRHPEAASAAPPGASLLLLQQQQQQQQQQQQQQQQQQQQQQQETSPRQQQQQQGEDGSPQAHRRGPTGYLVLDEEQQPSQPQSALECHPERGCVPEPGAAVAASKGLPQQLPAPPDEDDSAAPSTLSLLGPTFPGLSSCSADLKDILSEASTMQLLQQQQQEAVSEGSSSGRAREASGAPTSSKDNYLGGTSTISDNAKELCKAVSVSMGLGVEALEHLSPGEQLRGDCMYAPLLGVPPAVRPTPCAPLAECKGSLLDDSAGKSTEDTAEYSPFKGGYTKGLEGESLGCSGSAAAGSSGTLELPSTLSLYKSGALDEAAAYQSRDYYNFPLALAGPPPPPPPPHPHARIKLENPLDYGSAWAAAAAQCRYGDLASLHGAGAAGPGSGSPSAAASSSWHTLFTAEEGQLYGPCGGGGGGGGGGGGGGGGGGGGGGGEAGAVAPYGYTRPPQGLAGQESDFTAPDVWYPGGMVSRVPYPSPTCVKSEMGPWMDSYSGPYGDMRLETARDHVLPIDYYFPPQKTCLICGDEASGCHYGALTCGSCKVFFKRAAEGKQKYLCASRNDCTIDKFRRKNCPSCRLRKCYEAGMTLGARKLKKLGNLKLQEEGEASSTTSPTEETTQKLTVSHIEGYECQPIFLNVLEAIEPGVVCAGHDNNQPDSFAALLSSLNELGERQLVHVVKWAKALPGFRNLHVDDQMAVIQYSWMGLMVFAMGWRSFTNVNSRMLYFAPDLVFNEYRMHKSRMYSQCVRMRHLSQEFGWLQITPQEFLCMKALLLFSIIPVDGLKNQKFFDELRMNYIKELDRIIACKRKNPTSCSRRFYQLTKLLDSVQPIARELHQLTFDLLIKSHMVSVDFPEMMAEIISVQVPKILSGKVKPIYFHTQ
Experimental: as §5

[3] = tested on: glucocorticoid receptor (GR); assay: Glucocorticoid receptor expression; format: cell-based
lncRNA RP11-473I1.9 = lncRNA RP11-473I1.9 expression (real-time PCR); format: cell-based; details: FIG. 4G
Experimental: as §2

EnzR3-C4-2B cells = assay: MTT cell proliferation assay, EnzR3-C4-2B; format: cell-based; details: FIG. 2H
Experimental: as §1

EnzR2-CWR22Rv1 cells [4] = assay: Orthotopic EnzR xenograft in castrated nude mice; format: in vivo
[5] = tested on: estrogen receptor b (ERb); assay: Estrogen receptor b expression; format: cell-based
AR mRNA = AR mRNA expression (real-time PCR); format: cell-based; details: FIG. 5A
Experimental: as §2

cPARP = assay: Cell apoptosis by cPARP level; format: cell-based
Malat1 = Malat1 mRNA expression (real-time PCR); format: cell-based; details: EnzR1-C4-2 cells, FIG. 4F
Experimental: as §2

AR = AR protein expression/degradation in CRPC cells (western blot); format: cell-based
Experimental: as §3, §4, §5

AR promoter = AR promoter luciferase assay (pAR-luc) in EnzR2-CWR22Rv1 cells; format: cell-based; details: 1 ug/mL Cis, FIG. 5B
Text: In addition to function via altering the AR-ubiquitination to decrease ARv7 (and AR) protein expression and modulating the Malat1/SF2 RNA splicing complex to decrease ARv7 mRNA biosynthesis/expression, it is interesting to see the potential 3rd molecular mechanism at transcriptional regulation to alter the AR expression for Cis to decrease ARv7 mRNA expression. […] A 3.6 kb AR promoter was then constructed into pGL3 luciferase vector (pAR-luc) and transfected pAR-luc into EnzR2-CWR22Rv1 cells for luciferase assay.

AR-ubiquitin complex = assay: AR-ubiquitination immunoprecipitation in 293T cells; format: cell-based, human; details: 293T cells with AR and ubiquitin-GPF, FIG. 4D
Experimental: Then examined was whether ubiquitination involves in ARv7 (and AR) degradation. First added were AR and ubiquitin-GPF in 293T cells, and then applied the immunoprecipitation assay to examine Cis effect on AR-ubiquitination.
as §4

SF2 = SF2 protein level; format: cell-based
Sequence of SF2 (Q07955 whole entry): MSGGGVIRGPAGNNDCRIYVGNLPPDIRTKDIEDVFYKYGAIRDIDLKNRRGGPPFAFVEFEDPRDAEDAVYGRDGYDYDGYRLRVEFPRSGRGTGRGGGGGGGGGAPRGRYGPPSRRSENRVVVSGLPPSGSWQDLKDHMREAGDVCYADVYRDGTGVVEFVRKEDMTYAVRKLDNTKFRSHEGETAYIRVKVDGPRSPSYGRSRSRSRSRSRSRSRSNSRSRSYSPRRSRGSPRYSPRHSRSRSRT
Experimental: as §5

EnzR2-CWR22Rv1 cells [6] = assay: MTT cell proliferation assay, EnzR2-CWR22Rv1; format: cell-based; details: FIG. 2E
Experimental: as §1

[7] = EnzR3-C4-2 cells, Cis at 1 ug/mL, FIG. 2J
[8] = EnzS1-C4-2 cells, Cis at 1-2 ug/mL, FIG. 2I
[9] = EnzR2-CWR22Rv1 cells, after 6 hrs treatment, FIG. 4A

## COc1ccc(/C=C/C(=O)/C=C(O)/C=C/c2ccc(OC)c(OC)c2)cc1OC [ASC-J9®]
[1]
  degradation of wild type AR, ARv7 and AR mutants including AR-F876L: could degrade both wild type AR and the AR variant ARv7 or AR mutants including AR-F876L

## CC(O)(CS(=O)(=O)c1ccc(F)cc1)C(=O)Nc1ccc(C#N)c(C(F)(F)F)c1 (stereo not shown) [Casodex]
[1]
  degradation of wild type AR, ARv7 and AR mutants including AR-F876L: not

## CNC(=O)c1ccc(N2C(=S)N(c3ccc(C#N)c(C(F)(F)F)c3)C(=O)C2(C)C)cc1F [Enz, 4-(3-(4-Cyano-3-(trifluoromethyl)phenyl)-5,5-dimethyl-4-oxo-2-thioxoimidazolidin-1-yl)-2-fluoro-N-methylbenzamide]
EnzR1-C4-2 cells; 20 uM Enz alone, FIG. 2A
  suppression of cell growth: little effect
ARv7 mRNA; Enz-S1-C4-2 cells, Enz treatment, FIG. 3D
  ARv7 mRNA expression: led to increase ARv7 mRNA expression
[2]
  extension of overall survival (average): 4.8 months
Enz-S1-C4-2 cells; Enz-S1-C4-2 cells before long-term treatment, FIG. 3A
  Enz sensitivity: 54%
Enz-S1-C4-2 cells; after 10 uM Enz alone for 2 months, FIG. 3B
  Enz sensitivity: 38%

## CC(C)C[C@@H](C=O)NC(=O)[C@H](CC(C)C)NC(=O)[C@H](CC(C)C)NC(=O)OCc1ccccc1 [MG132] (Cbz-Leu-Leu-Leu-aldehyde)
ARv7; MG132 with Cis 6 hrs, FIG. 4B
  effect on Cis-induced ARv7 (and AR) degradation: attenuate/inhibit the effect of Cis on ARv7 (and AR) degradation

## O=C(Nc1ccc([N+](=O)[O-])cc1Cl)c1cc(Cl)ccc1O [niclosamide]
PCa cell
  PCa cell growth: suppress the PCa cell growth in vitro and in vivo

## (SP-4-2)-diamminedichloroplatinum(II) [Cis]
AR mutant AR876
  AR876 expression: can also decrease
EnzR1-C4-2 cells; 20 uM Enz combined with 2 ug/mL (6.6 uM) Cis, FIG. 2B
  suppression of cell growth: could suppress EnzR1-C4-2 cell growth
EnzR1-C4-2 cells; Cis combined with 20 uM Enz, FIG. 2C
  IC50 (cell growth): ~5 µg/mL
EnzR1-C4-2 cells; Cis combined with 20 uM Enz, FIG. 2C, read-out: IC50 (cell growth)
  IC50: ~16.5 µM
[3]
  GR expression: little effect to decrease
ARv7 mRNA; Enz-S1-C4-2 cells, Enz plus Cis (0.2 ug/mL), FIG. 3D
  ARv7 mRNA expression: suppressed the Enz-increased ARv7 significantly
ARv7 mRNA; EnzR1-C4-2 cells, FIG. 4E
  ARv7 mRNA expression: decreased in dose-dependent manner
lncRNA RP11-473I1.9
  lncRNA RP11-473I1.9 expression: little effect
EnzR3-C4-2B cells
  IC50 (cell growth): 3.3 µg/mL
EnzR3-C4-2B cells; read-out: IC50 (cell growth)
  IC50: 10.9 µM
EnzR2-CWR22Rv1 cells [4]; Enz 3.5 mg/kg every other day i.p. with vs without Cis 3.5 mg/kg weekly i.v., 3 weeks
  tumor progression: can increase/restore the Enz sensitivity to further suppress the EnzR3-C4-2B tumor progression
EnzR2-CWR22Rv1 cells [4]; tumor received Cis+Enz
  tumor expression of ARv7 (and AR), Malat1 and SF2 (immunohistochemistry): lower expression of ARv7 (and AR), as well as Malat1 and SF2
[5]
  ERb expression: little effect to decrease
AR mRNA
  AR mRNA: could also decrease AR mRNA in a dose-dependent manner
cPARP; [7]
  cell apoptosis (cPARP): little change in cPARP
cPARP; [8]
  cell apoptosis (cPARP): little change in cPARP
Malat1
  Malat1 mRNA expression: decreased in dose-dependent manner
ARv7; CWR22Rv1 cells, Cis plus CHX compared to CHX alone, FIG. 4C
  ARv7 (and AR877) degradation: can facilitate ARv7 (and AR877) degradation
ARv7; EnzR1-C4-2 cells, increasing Cis, FIG. 1B
  ARv7 expression: diminishing ARv7 was detected upon increasing Cis
ARv7; [9]
  ARv7 protein degradation: could degrade ARv7 (and AR)
AR; EnzR1-C4-2 cells, FIG. 1B
  AR expression: could suppress the AR
AR; [9]
  AR protein degradation: could degrade ARv7 (and AR)
AR; [7]
  AR degradation: may degrade AR
AR; [8]
  AR degradation: could degrade AR
AR; EnzS1-C4-2 cells, FIG. 1A
  AR expression: could suppress the AR
AR promoter
  AR promoter activity (pAR-luc luciferase): can also decrease AR mRNA expression at transcriptional level via altering AR promoter activity
AR-ubiquitin complex
  AR-ubiquitin complex: may increase the AR-ubiquitin complex
Enz-S1-C4-2 cells; after 10 uM Enz plus 0.2 ug/mL (0.66 uM) Cis for 2 months, FIG. 3C
  Enz sensitivity: 62%
SF2
  SF2 protein expression: may decrease SF2 protein expression in a dose-dependent manner
EnzR2-CWR22Rv1 cells [6]
  IC50 (cell growth): 5 µg/mL
EnzR2-CWR22Rv1 cells [6]; read-out: IC50 (cell growth)
  IC50: 16.5 µM
